# Experimental data published in patent US7932286B2, “Method for treating colonic viscerosensitivity and spasticity” (priority 2007, dated 2011).
# Test system: colonic viscerosensitivity and spasticity induced by colonoscopy
# Assay: Video-endoscopic colonoscopy after oral pre-treatment, individual case studies
# Format: in vivo, human
# Text: The patient had received a complete colonoscopy three years before in a hospital based gastro-intestinal unit, and this experience left them very anxious concerning the need for a repeat examination. The occurrence of pain during the procedure as well as the discomfort lasting few hours following the colonoscopic examination, despite parenteral sedation/analgesia, was still vivid in their memories. They wanted to negotiate an alternate diagnostic procedure such as a air-contrast barium enema. […] They were instructed to completed this pharmacological preparation by taking two Fleet® Phospho-soda 45 ml vials with five or six glasses of liquid one in the evening before the examination, and one in the morning two hours before the examination to clean and prepare “clean-rep” the colon. They presented alone to the endoscopy clinic and they were appropriately positioned on their left side on the examination table, and the video-endoscopic colonoscopy was initiated by the endoscopist. The colonoscopy was easily completed to the caecum in 14 minutes. […] The whole colonic examination including the accurate examination of the colon upon retraction of the instrument lasted a total of 25 minutes and was negative for mucosal lesions and for endoluminal polypoid formations. The patient then dressed up and walked to the endoscopist's office to receive the good results of the examination. They were asked several questions on their experience of the new pharmacological preparation as compared to their previous hospital-based unit experience with parenteral sedation/analgesia. […] The endoscopist and the assistant nurse were very satisfied with the ease and shortness of the completed procedure.
# As part of a complete investigation, a colonoscopy was planned. They were prescribed Trimebutine maleate 200 mg tablets to be taken orally three times a day for three days before the scheduled examination. They were instructed to complete the pharmacological preparation by taking two Fleet® Phospho-soda 45 ml vials with five or six glasses of liquid, one in the evening before the examination, and one in the morning two hours before the examination to clean and prepare “clean-prep” the colon. They presented to the endoscopy unit with doubts that they could sustain the planned examination without any other drug preparation, having seen in their career many patients having barely tolerated this procedure of full colonoscopy, even after having received before the examination meperidine and midazolam intravenously. They also remembered the “stress experienced by the endoscopist and the assistant nurse working at completing the examination rapidly and successfully reaching the caecum in these patients”. Nonetheless, they consented at trying to receive the examination without further pharmacological preparation, with the promise by the physician that the procedure would be interrupted at their request in the case that they could not tolerate the pain or discomfort. After appropriately positioning the patient on their left side, the instrument was delicately introduced in their rectum, and the progression of the instrument gently initiated. They asked to have their head elevated with a pillow so they could see the video monitor and watch the video-endoscopic recording of their examination. […] The physician and the nurse were surprised by the fact that such a patient presenting a clinical irritable bowel syndrome could experience so little discomfort during the examination since these patients characteristically are chronically suffering from a very low threshold of viscerosentivity with solid or gaseous distension of the colon. After the procedure, they commented that they would accept to repeat the examination any time, and would not hesitate to recommend this pharmacological preparation to patients needing complete colonoscopy, and would be ready to reassure them that there were no more reasons to fear to receive such examination.
# [1] = Example 1, patient, 200 mg tablets orally three times a day for three days before examination
# [2] = Example 2, patient with clinical irritable bowel syndrome, 200 mg tablets orally three times a day for three days
substance,measurement,setting,value
Trimebutine maleate,recovery after the procedure,"Example 1, patient",capable to drive home by themself without any assistance or recovery time
same,colonic spastic contractions during colonoscopy,[1],No colonic spastic contractions occurred
same,duration of whole colonic examination including retraction of the instrument,[1],25 min
same,pain or discomfort generated by air-distension of the colon,[1],did not generate pain or discomfort
same,time in which colonoscopy was completed to the caecum,"Example 1, patient, 200 mg tablets orally three times a day for three days before examination, no sedation",14 min
same,patient-reported pain and discomfort during the procedure,"Example 1, patient, questioned after the examination",did not experience any pain and very mild discomfort
same,discomfort experienced by the patient during the examination,[2],only mild but perfectly tolerable discomfort
same,progression of the instrument in the patient,[2],"easy, painless"
same,spastic contractions during colonoscopy,[2],No spastic contractions delayed the progression of the instrument
same,time in which the caecum was reached,"Example 2, patient with clinical irritable bowel syndrome, 200 mg tablets orally three times a day for three days before examination, no sedation",12 min
